Data: patent US11040031B2, “Pyrazole derivatives as MALT1 inhibitors” (Janssen Pharmaceutica NV, priority 2018, dated 2021)

These compounds were tested against T1, full-length MALT1 protein (Strep-MALT1(1-824)-His) (Homo sapiens, UniProt Q9UDY8) (assay: biochemical).
T1 sequence (Q9UDY8 1-824): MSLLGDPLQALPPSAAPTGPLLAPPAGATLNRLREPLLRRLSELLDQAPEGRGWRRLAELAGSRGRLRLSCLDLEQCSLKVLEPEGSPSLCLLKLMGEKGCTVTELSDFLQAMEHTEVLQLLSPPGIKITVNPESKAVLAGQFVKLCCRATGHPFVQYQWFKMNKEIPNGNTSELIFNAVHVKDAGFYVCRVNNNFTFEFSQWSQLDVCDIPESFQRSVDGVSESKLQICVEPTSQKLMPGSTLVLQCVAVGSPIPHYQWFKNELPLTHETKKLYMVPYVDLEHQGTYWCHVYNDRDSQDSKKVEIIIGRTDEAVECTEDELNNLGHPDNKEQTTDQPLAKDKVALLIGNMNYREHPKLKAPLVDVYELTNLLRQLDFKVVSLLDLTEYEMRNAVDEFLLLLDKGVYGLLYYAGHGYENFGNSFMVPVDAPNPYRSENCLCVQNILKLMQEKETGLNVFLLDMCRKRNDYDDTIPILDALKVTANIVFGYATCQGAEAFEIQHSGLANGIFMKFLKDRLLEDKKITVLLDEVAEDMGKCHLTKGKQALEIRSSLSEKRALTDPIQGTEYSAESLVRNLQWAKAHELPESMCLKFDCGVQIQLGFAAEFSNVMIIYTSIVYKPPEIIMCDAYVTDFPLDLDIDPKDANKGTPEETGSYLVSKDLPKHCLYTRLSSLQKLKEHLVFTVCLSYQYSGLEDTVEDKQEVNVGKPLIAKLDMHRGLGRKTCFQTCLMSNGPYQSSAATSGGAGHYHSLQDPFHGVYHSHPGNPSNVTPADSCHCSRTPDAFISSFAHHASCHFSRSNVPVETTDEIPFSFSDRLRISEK
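Further: fluorogenic LRSR-AMC substrate cleavage by MALT1, 50 min compound preincubation then 4 h reaction at RT, 11-point dilution from 30 µM, scaled between enzyme-free and untreated enzyme controls.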

Structure (SMILES)	IC50 [nM]
N#Cc1ccc(-n2ncc(C(=O)Nc3cnc(-n4nccn4)c(Cl)c3)c2C(F)(F)F)c(Cl)c1 [Cpd 110, 1-(2-chloro-4-cyanophenyl)-N-(5-chloro-6-(2H-1,2,3-triazol-2-yl)pyridin-3-yl)-5-(trifluoromethyl)-1H-pyrazole-4-carboxamide]	123
O=C(Nc1cnc(-n2nccn2)c(Cl)c1)c1cnn(-c2ccc(F)cc2C(F)(F)F)c1C(F)(F)F [Cpd 114, N-(5-chloro-6-(2H-1,2,3-triazol-2-yl)pyridin-3-yl)-1-(4-fluoro-2-(trifluoromethyl)phenyl)-5-(trifluoromethyl)-1H-pyrazole-4-carboxamide]	1000
COC(C)c1ccccc1-n1ncc(C(=O)Nc2cnc(-n3nccn3)c(Cl)c2)c1C(F)(F)F (stereo not drawn) [Cpd 118, N-(5-Chloro-6-(2H-1,2,3-triazol-2-yl)pyridin-3-yl)-1-(2-(1-methoxyethyl)phenyl)-5-(trifluoromethyl)-1H-pyrazole-4-carboxamide]	2950
O=C(Nc1cnc(-n2nccn2)c(Cl)c1)c1cnn(-c2ccc(F)nc2)c1C(F)(F)F [Cpd 121, N-(5-chloro-6-(2H-1,2,3-triazol-2-yl)pyridin-3-yl)-1-(6-fluoropyridin-3-yl)-5-(trifluoromethyl)-1H-pyrazole-4-carboxamide]	1170
N#Cc1cc(NC(=O)c2cnn(-c3ccc(F)nc3)c2C(F)(F)F)cnc1-n1nccn1 [Cpd 123, N-(5-cyano-6-(2H-1,2,3-triazol-2-yl)pyridin-3-yl)-1-(6-(fluoro)pyridin-3-yl)-5-(trifluoromethyl)-1H-pyrazole-4-carboxamide]	794
N#Cc1cc(NC(=O)c2cnn(-c3cccc(N)n3)c2C(F)(F)F)cnc1-n1nccn1 [Cpd 134, 1-(6-aminopyridin-2-yl)-N-(5-cyano-6-(2H-1,2,3-triazol-2-yl)pyridin-3-yl)-5-(trifluoromethyl)-1H-pyrazole-4-carboxamide]	263
N#Cc1cc(F)ccc1-n1ncc(C(=O)Nc2cnc(-n3nccn3)c(C#N)c2)c1C(F)(F)F [Cpd 135, 1-(2-cyano-4-fluorophenyl)-N-(5-cyano-6-(2H-1,2,3-triazol-2-yl)pyridin-3-yl)-5-(trifluoromethyl)-1H-pyrazole-4-carboxamide]	525
N#Cc1cc(F)ccc1-n1ncc(C(=O)Nc2cnc(-n3nccn3)c(Cl)c2)c1C(F)(F)F [Cpd 136, N-(5-chloro-6-(2H-1,2,3-triazol-2-yl)pyridin-3-yl)-1-(2-cyano-4-fluorophenyl)-5-(trifluoromethyl)-1H-pyrazole-4-carboxamide]	759
O=C(Nc1cnc(-n2nccn2)c(Cl)c1)c1cnn(-c2ccc(F)c(N3CC(O)C3)n2)c1C(F)(F)F [Cpd 151, N-(5-chloro-6-(2H-1,2,3-triazol-2-yl)pyridin-3-yl)-1-(5-fluoro-6-(3-hydroxyazetidin-1-yl)pyridin-2-yl)-5-(trifluoromethyl)-1H-pyrazole-4-carboxamide]	2400
Cc1c[n+]([O-])ccc1-n1ncc(C(=O)Nc2cnc(-n3nccn3)c(Cl)c2)c1C(F)(F)F [Cpd 153, 4-(4-((5-chloro-6-(2H-1,2,3-triazol-2-yl)pyridin-3-yl)carbamoyl)-5-(trifluoromethyl)-1H-pyrazol-1-yl)-3-methylpyridine 1-oxide]	4900
Cc1cnc(N2CC(O)C2)cc1-n1ncc(C(=O)Nc2cnc(-n3nccn3)c(Cl)c2)c1C(F)(F)F [Cpd 156, N-(5-chloro-6-(2H-1,2,3-triazol-2-yl)pyridin-3-yl)-1-(2-(3-hydroxyazetidin-1-yl)-5-methylpyridin-4-yl)-5-(trifluoromethyl)-1H-pyrazole-4-carboxamide]	1290
Cc1c(-n2ncc(C(=O)Nc3cnc(-n4nccn4)c(Cl)c3)c2C(F)(F)F)ccnc1N1CC(O)C1 [Cpd 157, N-(5-chloro-6-(2H-1,2,3-triazol-2-yl)pyridin-3-yl)-1-(2-(3-hydroxyazetidin-1-yl)-3-methylpyridin-4-yl)-5-(trifluoromethyl)-1H-pyrazole-4-carboxamide]	8130
O=C(Nc1cnc(-n2nccn2)c(Cl)c1)c1cnn(-c2nc(Cl)ccc2Cl)c1C(F)(F)F [Cpd 163, N-(5-chloro-6-(2H-1,2,3-triazol-2-yl)pyridin-3-yl)-1-(3,6-dichloropyridin-2-yl)-5-(trifluoromethyl)-1H-pyrazole-4-carboxamide]	794
N#Cc1cc(NC(=O)c2cnn(-c3nc(Cl)ccc3C(F)(F)F)c2C(F)(F)F)cnc1-n1nccn1 [Cpd 164, 1-(6-chloro-3-(trifluoromethyl)pyridin-2-yl)-N-(5-cyano-6-(2H-1,2,3-triazol-2-yl)pyridin-3-yl)-5-(trifluoromethyl)-1H-pyrazole-4-carboxamide]	1410
O=C(Nc1cnc(-n2nccn2)c(Cl)c1)c1cnn(-c2nc(Cl)ccc2C(F)(F)F)c1C(F)(F)F [Cpd 165, 1-(6-chloro-3-(trifluoromethyl)pyridin-2-yl)-N-(5-chloro-6-(2H-1,2,3-triazol-2-yl)pyridin-3-yl)-5-(trifluoromethyl)-1H-pyrazole-4-carboxamide]	2290

The remaining compounds from weak to strong by IC50, led by results:

IC50 [nM]	Structure (SMILES)
5490	CS(=O)(=O)c1ccccc1-n1ncc(C(=O)Nc2cnc(-n3nccn3)c(Cl)c2)c1C(F)(F)F [Cpd 138, N-(5-chloro-6-(2H-1,2,3-triazol-2-yl)pyridin-3-yl)-1-(2-(methylsulfonyl)phenyl)-5-(trifluoromethyl)-1H-pyrazole-4-carboxamide]
3160	Cc1ccnnc1-n1ncc(C(=O)Nc2cnc(-n3nccn3)c(Cl)c2)c1C(F)(F)F [Cpd 159, N-(5-chloro-6-(2H-1,2,3-triazol-2-yl)pyridin-3-yl)-1-(4-methylpyridazin-3-yl)-5-(trifluoromethyl)-1H-pyrazole-4-carboxamide]
1910	Nc1ccc(-n2ncc(C(=O)Nc3cnc(-n4nccn4)c(Cl)c3)c2C(F)(F)F)cn1 [Cpd 125, 1-(6-aminopyridin-3-yl)-N-(5-chloro-6-(2H-1,2,3-triazol-2-yl)pyridin-3-yl)-5-(trifluoromethyl)-1H-pyrazole-4-carboxamide]
1320	CNc1ccc(-n2ncc(C(=O)Nc3cnc(-n4nccn4)c(Cl)c3)c2C(F)(F)F)cn1 [Cpd 122, N-(5-chloro-6-(2H-1,2,3-triazol-2-yl)pyridin-3-yl)-1-(6-(methylamino)pyridin-3-yl)-5-(trifluoromethyl)-1H-pyrazole-4-carboxamide]
1200	CNc1ccc(-n2ncc(C(=O)Nc3cnc(-n4nccn4)c(C#N)c3)c2C(F)(F)F)cn1 [Cpd 124, N-(5-cyano-6-(2H-1,2,3-triazol-2-yl)pyridin-3-yl)-1-(6-(methylamino)pyridin-3-yl)-5-(trifluoromethyl)-1H-pyrazole-4-carboxamide]
955	Cc1cnc(Cl)cc1-n1ncc(C(=O)Nc2cnc(-n3nccn3)c(Cl)c2)c1C(F)(F)F [Cpd 154, 1-(2-chloro-5-methyl-4-pyridyl)-N-[5-chloro-6-(triazol-2-yl)-3-pyridyl]-5-(trifluoromethyl)pyrazole-4-carboxamide]
832	N#Cc1cc(NC(=O)c2cnn(-c3ccc(F)c(N4CC(O)C4)n3)c2C(F)(F)F)cnc1-n1nccn1 [Cpd 152, N-(5-cyano-6-(2H-1,2,3-triazol-2-yl)pyridin-3-yl)-1-(5-fluoro-6-(3-hydroxyazetidin-1-yl)pyridin-2-yl)-5-(trifluoromethyl)-1H-pyrazole-4-carboxamide]
741	Cc1nc(-n2ncc(C(=O)Nc3cnc(-n4nccn4)c(Cl)c3)c2C(F)(F)F)ccc1F [Cpd 161, N-(5-chloro-6-(2H-1,2,3-triazol-2-yl)pyridin-3-yl)-1-(5-fluoro-6-methylpyridin-2-yl)-5-(trifluoromethyl)-1H-pyrazole-4-carboxamide]
427	N#Cc1cc(NC(=O)c2cnn(-c3ccc(F)c(Cl)c3)c2C(F)(F)F)cnc1-n1nccn1 [Cpd 109, 1-(3-chloro-4-fluorophenyl)-N-(5-cyano-6-(2H-1,2,3-triazol-2-yl)pyridin-3-yl)-5-(trifluoromethyl)-1H-pyrazole-4-carboxamide]
372	CN1CCCc2c1cccc2-n1ncc(C(=O)Nc2cnc(-n3nccn3)c(C#N)c2)c1C(F)(F)F [Cpd 127, N-(5-cyano-6-(2H-1,2,3-triazol-2-yl)pyridin-3-yl)-1-(1-methyl-1,2,3,4-tetrahydroquinolin-5-yl)-5-(trifluoromethyl)-1H-pyrazole-4-carboxamide]
363	N#Cc1cc(NC(=O)c2cnn(-c3ccc(F)cc3C(F)(F)F)c2C(F)(F)F)cnc1-n1nccn1 [Cpd 115, N-(5-cyano-6-(2H-1,2,3-triazol-2-yl)pyridin-3-yl)-1-(4-fluoro-2-(trifluoromethyl)phenyl)-5-(trifluoromethyl)-1H-pyrazole-4-carboxamide]
257	Cc1c(-n2ncc(C(=O)Nc3cnc(-n4nccn4)c(Cl)c3)c2C(F)(F)F)ccnc1Cl [Cpd 155, 1-(2-chloro-3-methylpyridin-4-yl)-N-(5-chloro-6-(2H-1,2,3-triazol-2-yl)pyridin-3-yl)-5-(trifluoromethyl)-1H-pyrazole-4-carboxamide]
